We go through three molecules from patent publication US20150080465A1 (priority 2013, published 2015).

For data set [1] the following is noted: monkeys, equivalent dosages orally in gelatin capsules; cited from earlier work.
Data set [2] deals with monocrotaline (MCT)-induced pulmonary arterial hypertension. As to conditions: rat, in vivo.
The test system of data set [3] is patients with type 2 diabetes and overt nephropathy. As to conditions: in vivo; cited from earlier work.

Turning to `COC(=O)C12CCC(C)(C)CC1C1C(=O)C=C3C4(C)C=C(C#N)C(=O)C(C)(C)C4CCC3(C)C1(C)CC2` (stereo not drawn) [Form B], the Bioavailability result in data set [1] is listed as “higher than that of Form A”. With `CCCc1nn(C)c2c(=O)[nH]c(-c3cc(S(=O)(=O)N4CCN(C)CC4)ccc3OCC)nc12` [sildenafil], the Pulmonary edema result in data set [2] is given as “completely abrogated”. `COc1ccccc1Oc1c(NS(=O)(=O)c2ccc(C)cn2)nc(-c2ccncc2)nc1OC` [Avosentan]: the “Fluid overload-related adverse events, serious and non-serious” value in data set [3] was “increased only within the first month of treatment”.
